# Measurements as given in patent US5089273A, “Ecteinascidins 729, 743, 745, 759A, 759B and 770” (priority 1990, dated 1992).
# Columns and labels:
# M. luteus = assay: Antimicrobial activity vs. M. luteus (disk zones of inhibition); type: cell-based
# Description: (§1) The antimicrobial activities (vs. M. luteus) and the cytotoxic activities (vs. CV-1 cells) of the ecteinascidins and ecteinascidin 743 derivatives are shown in Table 1 and 2. […] All of the derivatives of ecteinascidin 743 that were prepared have antimicrobial and cytotoxic activities.
# bacteria = assay: Antibacterial Activity (disk zone of inhibition, Example 4); type: cell-based
# Description: | Zone of inhibition (mm)
# P388 leukemia = assay: In vivo P388 mouse leukemia test; conditions: for antitumor activity (in words): mouse, in vivo
# Description: Compounds of this invention are also active in vivo against P388 leukemia in mice. The P388 mouse leukemia test is described in detail in a publication by G. L. Neil et al., Cancer Treatment Reports, 63: 1971-1978 (1979).
# CV-1 cells = assay: Cytotoxic activity vs. CV-1 cells (disk zones of inhibition); type: cell-based; conditions: Cercopithecidae, read-out: Zones of Inhibition
# Description: as §1
# B16 Melanoma = assay: Antitumor activity vs. B16 Melanoma; type: in vivo; conditions: 0.01 mg/kg; Table 5
compound,measurement,setting,value
COc1cc2c(cc1O)CCN[C@]21CS[C@@H]2c3c(OC(C)=O)c(C)c4c(c3[C@H](COC1=O)N1[C@@H]2[C@@H]2N[C@@H](Cc3cc(C)c(OC)c(O)c32)[C@@H]1O)OCO4 [Ecteinascidin 729],zone of inhibition at 0.05 µg/disc,"M. luteus; Micrococcus luteus, 50 ng/6.35-mm disk",7 mm
same,zone of inhibition at 0.1 µg/disc,"M. luteus; Micrococcus luteus, 100 ng/6.35-mm disk",8 mm
same,zone of inhibition at 0.2 µg/disc,"M. luteus; Micrococcus luteus, 200 ng/6.35-mm disk",11 mm
same,zone of inhibition at 0.4 µg/disc,"M. luteus; Micrococcus luteus, 400 ng/6.35-mm disk",15 mm
same,zone of inhibition at 0.8 µg/disc,"M. luteus; Micrococcus luteus, 800 ng/6.35-mm disk",16 mm
same,zone of inhibition at 1.6 µg/disc,"M. luteus; Micrococcus luteus, 1600 ng/6.35-mm disk",18 mm
same,antimicrobial activity (in words),M. luteus; dilutions accurate to within a factor of 2,approximately equivalent and represent the most potent compounds in the series
same,zone of inhibition at 0.063 µg/disc,bacteria; 0.063 μg/disk,19 mm
same,zone of inhibition at 0.125 µg/disc,bacteria; 0.125 μg/disk,20 mm
same,zone of inhibition at 0.25 µg/disc,bacteria; 0.250 μg/disk,22 mm
same,T/C (%),"P388 leukemia; 0.0038 mg/kg, Table 4",214%
same,antitumor activity (in words),P388 leukemia,strong antitumor activity
same,antitumor activity (in words),P388 leukemia; listed as Et 729,the most active antitumor agent
same,zone of inhibition at 0.05 µg/disc,CV-1 cells; 50 ng/6.35-mm disk,9 mm
same,zone of inhibition at 0.1 µg/disc,CV-1 cells; 100 ng/6.35-mm disk,10 mm
same,zone of inhibition at 0.2 µg/disc,CV-1 cells; 200 ng/6.35-mm disk,10 mm
same,zone of inhibition at 0.4 µg/disc,CV-1 cells; 400 ng/6.35-mm disk,13 mm
same,zone of inhibition at 0.8 µg/disc,CV-1 cells; 800 ng/6.35-mm disk,16 mm
same,zone of inhibition at 1.6 µg/disc,CV-1 cells; 1600 ng/6.35-mm disk,18 mm
same,T/C (%),B16 Melanoma,246%
